Biological target: T1, Der p I (Dermatophagoides pteronyssinus, UniProt P08176)
T1 construct: tissue SmithKline-Beecham (crude mite extract); host or cells: house dust mite extract, purified on immobilised anti-Der p I antibody 4C1
T1 sequence (P08176 99-320): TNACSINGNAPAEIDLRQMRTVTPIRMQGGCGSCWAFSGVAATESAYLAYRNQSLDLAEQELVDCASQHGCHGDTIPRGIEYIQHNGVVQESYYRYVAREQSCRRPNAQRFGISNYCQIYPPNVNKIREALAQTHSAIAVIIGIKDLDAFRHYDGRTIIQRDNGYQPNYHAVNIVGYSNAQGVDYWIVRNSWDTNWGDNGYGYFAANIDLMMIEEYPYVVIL
Experiment: Cleavage of membrane CD23 on RPMI 8866 B cells by Der p I, FACS with FITC anti-CD23 (Bu38)
Type: cell-based
Settings: Der p I pre-incubated 30 min at 37° C. with inhibitor, then added to RPMI 8866 cells; FIG. 1(c)
Excerpt: We have affinity purified Der p I from dust mite extract and tested its ability to proteolytically cleave CD23 expressed on cultured RPMI 8866 B cells, using FITC labelled monoclonal anti-human CD23 (Bu38). […] The proteolytic activity of Der p I was inhibited by E64 (a cysteine protease inhibitor), but not by alpha-1-antitrypsin (a serine protease inhibitor), thereby confirming the cysteine protease nature of Der p I (FIG. 1c). […] A more detailed description of FIG. 1 is as follows:
Cells were analysed on a FACScan (Becton Dickinson, Oxford, UK) with a linear fluorescence setting of 660 volts. The fluorescence (FL1) profile versus forward scatter (FSC) was used to monitor the cells, the amplification scale was altered according to the level of fluorescence. For each sample 4000 events were collected and then analysed using the flowMATE programme (DAKO, High Wycombe, UK). Data presented are representative of 3 replicate experiments, each point in a to c represents the mean of duplicate determinations, FIG. 1(a). Dose and cysteine dependency of CD23 cleavage by Der p I (for method of purification see FIG. 1(d) below). Der p I was pre-incubated (15 min at 37° C.) with or without 5 mM cysteine and added to 2-3×10^5 RPMI 8866 cells in a total volume of […] RPMI 1640+10 mM HEPES. […]

| Compound | inhibition of membrane CD23 cleavage by Der p I |
| --- | --- |
| CC(C)C[C@H](NC(=O)[C@H]1O[C@@H]1C(=O)O)C(=O)NCCCCN=C(N)N (relative stereo) [Compound E64, L-trans-epoxysuccinyl-leucylamido (4-guanidino) butane, reference compound] | completely inhibits |
| alpha-1-antitrypsin: a naturally occurring human serine protease inhibitor | no such inhibitory effect |
